Where “and” joins values, the source holds several entries; their conditions need not be identical. Equal entries are not always repeated. Entries after “also recorded” stand apart in the source; their conditions may differ.
Tests used:
[1] = system: γ-H2AX (double-stranded DNA breaks); assay: γ-H2AX immunofluorescent staining with and without UVA radiation; type: cell-based; conditions: CX5461 10^-8M, 5x10-8M; PDS 20 x 10^-6M
Procedure: Human epidermal keratinocytes (HEKa) cells were sourced from Thermo Fisher Scientific, and were grown in EpiLife™ Medium with HKGS. HAP WT and XPA knockout cell lines (Horizon Discovery) were cultured in IMDM, 10% FCS. Human HCT116 cells, U2OS cells (ATCC) were grown in McCoy’s 5 A medium with 10% FBS and L-glutamine. All cell lines are mycoplasma free and have been authenticated by STR or SNP profiling. CX-5461 was provided by Senhwa Biosciences, Inc. PDS is from Sigma-Aldrich, BRACO-19 from Alfa Chemistry, PhENDC3 is from Sigma-Aldrich, γ -H2AX antibody from Abcam (1:1000 for IF) and CPD antibody (1:1500) from Cosmo Bio Ltd. (Catalog number: CAC-NM-DAD-001). The WST-1 assay was performed as previously described, γ H2AX foci staining was performed as previously described. Immunofluorescence staining of CPD was performed according to the protocol from the manufacturer (Cosmo Bio Ltd).
Supplementary Figures and Tables
Supplementary Figure 1. UVA radiation increased double-stranded DNA breaks and ROS.
Representative pictures of g -H2AX immunofluorescent staining with and without UVA radiation, for […]
condition, quantified in (b) Quantile and mean intensity of g-H2AX level per cell, vertical axis. UV and drug factor conditions, horizontal axis. […] Number of cells as in Figure 5 g (c) The ratio of ROS level measured after UVA irradiation versus before UVA irradiation was calculated. […]

U2OS cells = assay: CPD (cyclobutane pyrimidine dimer) immunofluorescence after UVA 125 mJ/cm^2; type: cell-based, Human; conditions: 1 h compound exposure
Procedure: Fig. 5 Comparison of G4 ligand photosensitization. […] Vertical axis, fractional survival, horizontal axis log10 drug concentration (M) (f) Representative images of CPD immunofluorescent staining under UV and drug treatment conditions for U2OS cells, quantified from biological duplicates in (g) (h) Scale bar = 100um. U2OS cells were treated with drug or vehicle control, then immediately irradiated with UVA 125 mJ/cm^2; and fixed 1 h later for immunofluorescence staining with CPD antibody. g Distribution of mean intensity of CPD level per cell (total n = in labels), with two biological repeats per condition. Vertical axis, mean CPD intensity per cell, horizontal axis, conditions (h) WT or KO XPA HAP1 cells assayed for cytotoxicity. Vertical axis, fractional survival (WST-1 assay). The horizontal axis, log10 drug concentration (M). Error bars = standard deviation of the mean. Three biological repeats per condition.
Human epidermal keratinocytes (HEKa) cells were sourced from Thermo Fisher Scientific, and were grown in EpiLife™ Medium with HKGS. HAP WT and XPA knockout cell lines (Horizon Discovery) were cultured in IMDM, 10% FCS. Human HCT116 cells, U2OS cells (ATCC) were grown in McCoy’s 5 A medium with 10% FBS and L-glutamine. All cell lines are mycoplasma free and have been authenticated by STR or SNP profiling. […]

advanced solid tumors = assay: Efficacy assessment by RECIST 1.1 (best response, ORR, DCR, duration of response); type: in vivo, human; parameters: partial_response_date (time at which PR was documented) / bestchange (best change of target lesions, Figure 3): unit not given here; conditions: for bestchange (best change of target lesions, Figure 3): one value per patient; for time_on_study: individual patients
Procedure: Computed tomography of chest, abdomen, and pelvis was performed at baseline and every 8 weeks and as clinically indicated. All patients who had at least one post-baseline scan were included in efficacy analyses; patients with the non-target disease only were assessed for non-CR/non-PD and PD. Patients were evaluated for CR, PR, SD, or PD as defined by RECIST 1.1[23]. The objective response rate (ORR = CR+PR) and disease control rate (DCR = CR + PR + SD ≥ 6 months) are reported. Duration of response was defined as the time from when CR or PR was first documented until the first date that progressive disease was objectively documented or the time of the last disease assessment.

[2] = BRCA1/2, PALB2 or TP53 germline or somatic mutations
[3] = BRCA1/2 or PALB2 germline or somatic mutations
[4] = dose_level 2, Breast, patient 400006
[5] = dose_level 4, Ovarian, patient 400035
[6] = dose_level 8, Breast, patient 400012
[7] = dose_level 9, Breast, patient 400030

Cc1cnc(CNC(=O)c2c(=O)c3ccc(N4CCCN(C)CC4)nc3n3c2sc2ccccc23)cn1 [CX-5461]
DNA damage (γ-H2AX) in the presence of UVA [1]: synergistically increased; also recorded: markedly increased | potentiation of CPD formation by UVA (U2OS cells): strong potentiation | patients with confirmed PR (advanced solid tumors; 3 breast, 1 ovarian, all with germline DNA-repair abnormalities): Four | overall DCR (CR + PR + SD ≥ 6 months) (advanced solid tumors; 8/40, 95% CI: 9.1–35.7%): 20% | Best Response Complete Response (CR), N patients (advanced solid tumors; All treated patients N=40): 0 | Best Response Partial Response (PR), N patients (advanced solid tumors; All treated patients N=40): 4 | Best Response Progressive Disease (PD), N patients (advanced solid tumors; All treated patients N=40): 21 | Best Response Stable Disease (SD), N patients (advanced solid tumors; All treated patients N=40): 11 | Response Duration Median (range), SD (advanced solid tumors; All treated patients N=40, range 2.3-10.9): 3.6 Mo. | Response Duration Median (range), PR (advanced solid tumors; All treated patients N=40, range 5.5-8.2): 6.5 Mo. | Best Response Partial Response (PR), N patients (advanced solid tumors; [2]): 4 | Best Response Progressive Disease (PD), N patients (advanced solid tumors; [2]): 15 | Best Response Stable Disease (SD), N patients (advanced solid tumors; [2]): 7 | Response Duration Median (range), PR (advanced solid tumors; [2]): 6.5 (5.5-8.2) Mo. | Response Duration Median (range), SD (advanced solid tumors; [2]): 3.5 (3-9.2) Mo. | Best Response Partial Response (PR), N patients (advanced solid tumors; [3]): 3 | Best Response Progressive Disease (PD), N patients (advanced solid tumors; [3]): 12 | Best Response Stable Disease (SD), N patients (advanced solid tumors; [3]): 7 | Response Duration Median (range), PR (advanced solid tumors; [3]): 6.3 (5.5-6.8) Mo. | Response Duration Median (range), SD (advanced solid tumors; [3]): 3.5 (3-9.2) Mo. | bestchange (best change of target lesions, Figure 3) (advanced solid tumors; DOSE_LEV 0): 27.9 and 20.3 and 4.4 | bestchange (best change of target lesions, Figure 3) (advanced solid tumors; DOSE_LEV 1): 13.1 and 6 and 1.4 and -27.5 | bestchange (best change of target lesions, Figure 3) (advanced solid tumors; DOSE_LEV 2): -66.7 and 51.2 and 47.1 | bestchange (best change of target lesions, Figure 3) (advanced solid tumors; DOSE_LEV 3): 18.9 and 4 and 74.8 | bestchange (best change of target lesions, Figure 3) (advanced solid tumors; DOSE_LEV 4): -43.4 and 50.8 and 41.7 | bestchange (best change of target lesions, Figure 3) (advanced solid tumors; DOSE_LEV 5): 17.1 and 6.4 | bestchange (best change of target lesions, Figure 3) (advanced solid tumors; DOSE_LEV 6): -12.9 and -19.4 and 54 | bestchange (best change of target lesions, Figure 3) (advanced solid tumors; DOSE_LEV 7): 36.2 and 20.5 and 9.7 | bestchange (best change of target lesions, Figure 3) (advanced solid tumors; DOSE_LEV 8): 23.1 and 10.8 and 5.6 and 0 and -62.5 and 46.6 | bestchange (best change of target lesions, Figure 3) (advanced solid tumors; DOSE_LEV 9): 7.7 and -50 | Best Response Progressive Disease (PD), N patients (advanced solid tumors; Prior PARP Inhibitor N=8): 6 | Best Response Stable Disease (SD), N patients (advanced solid tumors; Prior PARP Inhibitor N=8): 1 | Best Response Partial Response (PR), N patients (advanced solid tumors; Prior Platinum N=32): 2 | Best Response Progressive Disease (PD), N patients (advanced solid tumors; Prior Platinum N=32): 18 | Best Response Stable Disease (SD), N patients (advanced solid tumors; Prior Platinum N=32): 8 | Responses observed, share of patients (advanced solid tumors; abstract, primarily in patients with defective homologous recombination): 14% | ORR (advanced solid tumors; all treated, 4/40, 95% CI: 2.8–23.7): 10% | ORR (advanced solid tumors; breast, ovarian, pancreas tumor types, 4/29, 95% CI: 3.9–31.7%): 14% | time_on_study (advanced solid tumors; dose_level 0 (50 mg/m^2 Day 1 & 8)): 4.5667 months and 3.9425 months and 2.037 months and 1.8398 months | time_on_study (advanced solid tumors; dose_level 1 (100 mg/m^2 Day 1 & 8)): 1.1499 months and 5.5195 months and 3.2526 months | time_on_study (advanced solid tumors; dose_level 2 (150 mg/m^2 Day 1 & 8)): 10.4476 months and 1.1828 months and 0.7228 months and 0.6899 months | partial_response_date (time at which PR was documented) (advanced solid tumors; [4]): 1.643 | partial_response_duration (advanced solid tumors; [4]): 6.275 months | time_on_study (advanced solid tumors; dose_level 3 (200 mg/m^2 Day 1 & 8)): 7.3265 months and 1.1828 months and 0.6899 months and 0.46 months | time_on_study (advanced solid tumors; dose_level 4 (250 mg/m^2 Day 1 & 8)): 14.7187 months and 1.8398 months and 1.807 months | partial_response_date (time at which PR was documented) (advanced solid tumors; [5]): 6.407 | partial_response_duration (advanced solid tumors; [5]): 8.246 months | time_on_study (advanced solid tumors; dose_level 5 (325 mg/m^2 Day 1 & 8)): 1.2485 months and 1.1828 months and 1.0185 months | time_on_study (advanced solid tumors; dose_level 6 (475 mg/m^2 Day 1 & 8)): 11.039 months and 3.8768 months and 1.8398 months | time_on_study (advanced solid tumors; dose_level 7 (325 mg/m^2 Day 1, 8 & 15)): 1.8398 months and 1.807 months and 0.8871 months | time_on_study (advanced solid tumors; dose_level 8 (475 mg/m^2 Day 1, 8 & 15)): 10.809 months and 7.3922 months and 2.1355 months and 2.0698 months and 0.9199 months | partial_response_date (time at which PR was documented) (advanced solid tumors; [6]): 3.45 | partial_response_duration (advanced solid tumors; [6]): 6.801 months | time_on_study (advanced solid tumors; dose_level 9 (650 mg/m^2 Day 1, 8 & 15)): 7.8193 months and 2.9897 months and 1.6099 months and 1.577 months and 1.0185 months | partial_response_date (time at which PR was documented) (advanced solid tumors; [7]): 1.708 | partial_response_duration (advanced solid tumors; [7]): 5.487 months | objective responses in patients who had received prior platinum (advanced solid tumors; in vivo): 2/32 | patients with durable SD (≥6 months) (advanced solid tumors; of 11 SD): 4 | Objective response (all PR), patients (advanced solid tumors; of 32 evaluable patients, best response in target lesions): 4 | shrinkage in target lesions (advanced solid tumors; one patient, gBRCA2-related pancreatic cancer, best response SD): 13% | best response (advanced solid tumors; one patient, metastatic breast cancer, germline PALB2 frameshift mutation): confirmed PR
